Experimental findings from paper PMC10518257 (Nature Cancer, 2023) are described below.

“And” between values parts separate entries of the source, which are not always exact repeats. Equal entries are not always repeated.

In one data set the test system is LUAD-0087AS2 PDX. The data set is described as follows: PDX efficacy study. The following applies: Fig. 6a LUAD-0087AS2; selpercatinib 30 mg/kg BID; individual animals.
The next data set has as its target T1, KIF5B–RET L730Q (Homo sapiens, UniProt P07949, L730Q).
T1 construct: Fusion of the RET kinase domain with several N-terminal partners such as kinesin family 5B (KIF5B); KIF5B (N-terminal fusion partner); expressed in transfected cells; host or cells: Jump-In GripTite HEK293 (transient)
In words: In-cell western assay of RET autophosphorylation. As to conditions: Jump-In GripTite HEK293 cells, one hour; Mean. Format: cell-based.

Data set [1] concerns the target panel of 255 (vepafestinib) or 256 (all other inhibitors) recombinant kinases. The data set is described as follows: Kinase selectivity profiling at a single concentration (Carna Biosciences). Format: biochemical. The following applies: 26 nM, 256 kinases.
In another data set the target is T2, KIF5B–RET G810S (Homo sapiens, UniProt P07949, G810S).
T2 construct: Fusion of the RET kinase domain with several N-terminal partners such as kinesin family 5B (KIF5B); KIF5B (N-terminal fusion partner); expressed in transfected cells; host or cells: Jump-In GripTite HEK293 (transient)
The data set is described as follows: In-cell western assay of RET autophosphorylation. As to conditions: Jump-In GripTite HEK293 cells, one hour; Mean. Type of data set: cell-based.

Another data set concerns the target T3, KIF5B–RET Y806C (Homo sapiens, UniProt P07949, Y806C).
T3 construct: Fusion of the RET kinase domain with several N-terminal partners such as kinesin family 5B (KIF5B); KIF5B (N-terminal fusion partner); expressed in transfected cells; host or cells: Jump-In GripTite HEK293 (transient)
The data set is described as follows: In-cell western assay of RET autophosphorylation. Format: cell-based. As to conditions: Jump-In GripTite HEK293 cells, one hour; Mean.

In the next data set the target is T4, KIF5B–RET G810D (Homo sapiens, UniProt P07949, G810D).
T4 construct: Fusion of the RET kinase domain with several N-terminal partners such as kinesin family 5B (KIF5B); KIF5B (N-terminal fusion partner); expressed in transfected cells; host or cells: Jump-In GripTite HEK293 (transient)
In words: In-cell western assay of RET autophosphorylation. Format: cell-based. The following applies: Jump-In GripTite HEK293 cells, one hour; Mean.

The next data set addresses T5, KIF5B–RET E732K (Homo sapiens, UniProt P07949, E732K).
T5 construct: Fusion of the RET kinase domain with several N-terminal partners such as kinesin family 5B (KIF5B); KIF5B (N-terminal fusion partner); expressed in transfected cells; host or cells: Jump-In GripTite HEK293 (transient)
The data set is described as follows: In-cell western assay of RET autophosphorylation. Type of data set: cell-based. The following applies: Jump-In GripTite HEK293 cells, one hour; Mean.

For another data set, the target named is T6, KIF5B–RET L772M (Homo sapiens, UniProt P07949, L772M).
T6 construct: Fusion of the RET kinase domain with several N-terminal partners such as kinesin family 5B (KIF5B); KIF5B (N-terminal fusion partner); expressed in transfected cells; host or cells: Jump-In GripTite HEK293 (transient)
The data set is described as follows: In-cell western assay of RET autophosphorylation. Format: cell-based. As to conditions: Jump-In GripTite HEK293 cells, one hour; Mean.

For a further data set, the target named is T7, KIF5B–RET WT (Homo sapiens, UniProt P07949).
T7 construct: Fusion of the RET kinase domain with several N-terminal partners such as kinesin family 5B (KIF5B); KIF5B (N-terminal fusion partner); expressed in transfected cells; host or cells: Jump-In GripTite HEK293 (transient, pJTI Fast-based vector)
The data set is described as follows: In-cell western assay of RET autophosphorylation. The following applies: Jump-In GripTite HEK293, 1 h, phospho-RET (Y905)/RET. Format: cell-based.

Another data set addresses T8, recombinant human RET (Homo sapiens, UniProt P07949).
T8 construct: purchased Carna Biosciences, Inc (Kobe, Japan)
In words: RET^WT kinase-inhibition assay (LANCE TR-FRET). Format: biochemical. The following applies: 10 μM ATP.

Another data set addresses T9, KIF5B–RET G810R (Homo sapiens, UniProt P07949, G810R).
T9 construct: Fusion of the RET kinase domain with several N-terminal partners such as kinesin family 5B (KIF5B); KIF5B (N-terminal fusion partner); expressed in transfected cells; host or cells: Jump-In GripTite HEK293 (transient)
In words: In-cell western assay of RET autophosphorylation. Type of data set: cell-based. The following applies: Jump-In GripTite HEK293, 1 h, phospho-RET (Y905)/RET.

The nature of another data set: in vivo. The following applies: male, BALB/c, mouse, brain and plasma, po, 50 mg/kg, Kp,uu,brain (unbound brain/plasma concentration ratio), male BALB/c mice, 50 mg per kg oral, 0.5 h or 1 h.
The target of a further data set is T10, KIF5B–RET M759I (Homo sapiens, UniProt P07949, M759I).
T10 construct: Fusion of the RET kinase domain with several N-terminal partners such as kinesin family 5B (KIF5B); KIF5B (N-terminal fusion partner); expressed in transfected cells; host or cells: Jump-In GripTite HEK293 (transient)
The data set is described as follows: In-cell western assay of RET autophosphorylation. Type of data set: cell-based. The following applies: Jump-In GripTite HEK293 cells, one hour; Mean (TPX-0046: the three replicates).

The target in the next data set is T11, KIF5B–RET L760Q (Homo sapiens, UniProt P07949, L760Q).
T11 construct: Fusion of the RET kinase domain with several N-terminal partners such as kinesin family 5B (KIF5B); KIF5B (N-terminal fusion partner); expressed in transfected cells; host or cells: Jump-In GripTite HEK293 (transient)
In words: In-cell western assay of RET autophosphorylation. Format: cell-based. The following applies: Jump-In GripTite HEK293 cells, one hour; Mean.

The next data set addresses T12, KIF5B–RET I788N (Homo sapiens, UniProt P07949, I788N).
T12 construct: Fusion of the RET kinase domain with several N-terminal partners such as kinesin family 5B (KIF5B); KIF5B (N-terminal fusion partner); expressed in transfected cells; host or cells: Jump-In GripTite HEK293 (transient)
The data set is described as follows: In-cell western assay of RET autophosphorylation. Format: cell-based. As to conditions: Jump-In GripTite HEK293 cells, one hour; Mean.

In the next data set the target is T13, KIF5B–RET L730R (Homo sapiens, UniProt P07949, L730R).
T13 construct: Fusion of the RET kinase domain with several N-terminal partners such as kinesin family 5B (KIF5B); KIF5B (N-terminal fusion partner); expressed in transfected cells; host or cells: Jump-In GripTite HEK293 (transient)
The data set is described as follows: In-cell western assay of RET autophosphorylation. Format: cell-based. As to conditions: Jump-In GripTite HEK293 cells, one hour; Mean.

In a further data set the target is T14, KIF5B–RET E768Q (Homo sapiens, UniProt P07949, E768Q).
T14 construct: Fusion of the RET kinase domain with several N-terminal partners such as kinesin family 5B (KIF5B); KIF5B (N-terminal fusion partner); expressed in transfected cells; host or cells: Jump-In GripTite HEK293 (transient)
The data set is described as follows: In-cell western assay of RET autophosphorylation. Format: cell-based. The following applies: Jump-In GripTite HEK293 cells, one hour; Mean.

Another data set has as its target T15, KIF5B–RET G810A (Homo sapiens, UniProt P07949, G810A).
T15 construct: Fusion of the RET kinase domain with several N-terminal partners such as kinesin family 5B (KIF5B); KIF5B (N-terminal fusion partner); expressed in transfected cells; host or cells: Jump-In GripTite HEK293 (transient)
The data set is described as follows: In-cell western assay of RET autophosphorylation. Format: cell-based. As to conditions: Jump-In GripTite HEK293 cells, one hour; Mean.

The target of a further data set is T16, KIF5B–RET G736A (Homo sapiens, UniProt P07949, G736A).
T16 construct: Fusion of the RET kinase domain with several N-terminal partners such as kinesin family 5B (KIF5B); KIF5B (N-terminal fusion partner); expressed in transfected cells; host or cells: Jump-In GripTite HEK293 (transient)
The data set is described as follows: In-cell western assay of RET autophosphorylation. As to conditions: Jump-In GripTite HEK293 cells, one hour; Mean. Type of data set: cell-based.

A further data set concerns the target T17, KIF5B–RET G810C (Homo sapiens, UniProt P07949, G810C).
T17 construct: Fusion of the RET kinase domain with several N-terminal partners such as kinesin family 5B (KIF5B); KIF5B (N-terminal fusion partner); expressed in transfected cells; host or cells: Jump-In GripTite HEK293 (transient)
In words: In-cell western assay of RET autophosphorylation. The following applies: Jump-In GripTite HEK293 cells, one hour; Mean. Type of data set: cell-based.

T10 sequence (P07949 713-1063 M759I limits assumed): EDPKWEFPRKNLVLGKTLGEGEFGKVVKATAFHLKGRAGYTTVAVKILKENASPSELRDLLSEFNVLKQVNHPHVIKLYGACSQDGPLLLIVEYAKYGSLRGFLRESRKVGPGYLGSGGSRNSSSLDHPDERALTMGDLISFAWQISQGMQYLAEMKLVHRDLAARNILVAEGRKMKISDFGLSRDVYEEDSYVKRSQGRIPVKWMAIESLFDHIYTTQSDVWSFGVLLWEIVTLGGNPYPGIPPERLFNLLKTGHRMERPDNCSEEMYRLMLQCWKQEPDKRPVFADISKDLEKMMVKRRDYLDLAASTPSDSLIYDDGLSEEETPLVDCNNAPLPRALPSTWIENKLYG
T14 sequence (P07949 713-1063 E768Q limits assumed): as the sequence (P07949 713-1063 M759I limits assumed) above, with I47M, E56Q counted along it
T11 sequence (P07949 713-1063 L760Q limits assumed): as the sequence (P07949 713-1063 M759I limits assumed) above, with I47M, L48Q counted along it
T3 sequence (P07949 713-1063 Y806C limits assumed): as the sequence (P07949 713-1063 M759I limits assumed) above, with I47M, Y94C counted along it
T12 sequence (P07949 713-1063 I788N limits assumed): as the sequence (P07949 713-1063 M759I limits assumed) above, with I47M, I76N counted along it
T1 sequence (P07949 713-1063 L730Q limits assumed): as the sequence (P07949 713-1063 M759I limits assumed) above, with L18Q, I47M counted along it
T6 sequence (P07949 713-1063 L772M limits assumed): as the sequence (P07949 713-1063 M759I limits assumed) above, with I47M, L60M counted along it
T13 sequence (P07949 713-1063 L730R limits assumed): as the sequence (P07949 713-1063 M759I limits assumed) above, with L18R, I47M counted along it
T8 sequence (P07949 29-1114): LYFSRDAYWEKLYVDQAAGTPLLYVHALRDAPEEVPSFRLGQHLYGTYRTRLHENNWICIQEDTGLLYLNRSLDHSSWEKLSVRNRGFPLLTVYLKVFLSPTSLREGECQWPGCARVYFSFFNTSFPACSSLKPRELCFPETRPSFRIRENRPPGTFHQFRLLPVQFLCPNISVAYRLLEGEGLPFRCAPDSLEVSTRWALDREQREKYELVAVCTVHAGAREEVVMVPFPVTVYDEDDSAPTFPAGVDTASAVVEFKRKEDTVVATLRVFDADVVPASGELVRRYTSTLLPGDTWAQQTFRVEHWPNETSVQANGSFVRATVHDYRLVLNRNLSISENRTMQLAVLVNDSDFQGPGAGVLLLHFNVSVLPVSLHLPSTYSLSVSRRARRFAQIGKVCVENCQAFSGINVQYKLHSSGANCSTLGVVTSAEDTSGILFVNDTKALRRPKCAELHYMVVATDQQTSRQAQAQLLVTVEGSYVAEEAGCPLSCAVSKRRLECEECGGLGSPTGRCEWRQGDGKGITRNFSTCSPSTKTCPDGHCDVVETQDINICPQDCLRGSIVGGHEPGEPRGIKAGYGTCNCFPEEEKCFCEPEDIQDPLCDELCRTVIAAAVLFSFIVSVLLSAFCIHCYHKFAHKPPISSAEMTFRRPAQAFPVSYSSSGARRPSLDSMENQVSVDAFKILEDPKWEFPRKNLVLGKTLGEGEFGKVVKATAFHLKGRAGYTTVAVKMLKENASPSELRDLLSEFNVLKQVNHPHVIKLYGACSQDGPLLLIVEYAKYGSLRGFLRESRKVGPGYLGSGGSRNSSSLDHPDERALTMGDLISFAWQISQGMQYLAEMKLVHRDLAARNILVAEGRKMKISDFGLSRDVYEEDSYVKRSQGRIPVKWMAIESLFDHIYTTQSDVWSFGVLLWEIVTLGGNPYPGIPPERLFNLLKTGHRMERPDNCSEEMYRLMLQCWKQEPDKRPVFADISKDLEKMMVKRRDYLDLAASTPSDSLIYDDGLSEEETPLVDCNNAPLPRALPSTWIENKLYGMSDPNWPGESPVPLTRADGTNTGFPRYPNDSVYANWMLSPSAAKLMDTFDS
T4 sequence (P07949 713-1063 G810D limits assumed): as the sequence (P07949 713-1063 M759I limits assumed) above, with I47M, G98D counted along it
T17 sequence (P07949 713-1063 G810C limits assumed): as the sequence (P07949 713-1063 M759I limits assumed) above, with I47M, G98C counted along it
T9 sequence (P07949 713-1063 G810R limits assumed): as the sequence (P07949 713-1063 M759I limits assumed) above, with I47M, G98R counted along it
T7 sequence (P07949 713-1063 limits assumed): as the sequence (P07949 713-1063 M759I limits assumed) above, with I47M counted along it
T2 sequence (P07949 713-1063 G810S limits assumed): as the sequence (P07949 713-1063 M759I limits assumed) above, with I47M, G98S counted along it
T5 sequence (P07949 713-1063 E732K limits assumed): as the sequence (P07949 713-1063 M759I limits assumed) above, with E20K, I47M counted along it
T16 sequence (P07949 713-1063 G736A limits assumed): as the sequence (P07949 713-1063 M759I limits assumed) above, with G24A, I47M counted along it
T15 sequence (P07949 713-1063 G810A limits assumed): as the sequence (P07949 713-1063 M759I limits assumed) above, with I47M, G98A counted along it

For `COc1ccc(CN2C3CC2CN(c2ccc(-c4cc(OCC(C)(C)O)cn5ncc(C#N)c45)cn2)C3)cn1` [Sepercatinib], the “Change in tumor volume (% from base line)” value in the data set on LUAD-0087AS2 PDX was -13.818% and -42.542% and -38.123% and -35.767% and -33.072%.
In the case of `C[C@H]1CNC(=O)c2cnn3cc4c(nc23)N(Cc2cc(F)cnc2O1)[C@@H]1CCC[C@@H]1O4` [TPX-0046], the IC50 at KIF5B–RET L730Q came out at 16.6 nM; against KIF5B–RET G810S it was 5.87 nM; at KIF5B–RET Y806C, 50 nM; on KIF5B–RET G810D it was 57.9 nM; on KIF5B–RET E732K, 14.7 nM; against KIF5B–RET L772M, 2.69 nM. In addition, the half-maximal inhibitory concentration (IC50) at KIF5B–RET WT is 21.9 nM; on recombinant human RET, 0.26 ± 0.02 nM; on KIF5B–RET G810R, 108 nM; at KIF5B–RET M759I, < 1 nM and 1.2 nM and 1.72 nM; against KIF5B–RET L760Q, 5.35 nM; against KIF5B–RET I788N it was 50.6 nM. Moreover, the 50% inhibitory concentration (IC50) at KIF5B–RET L730R is 4.49 nM; on KIF5B–RET E768Q, 4.05 nM; at KIF5B–RET G810A, 6.53 nM; against KIF5B–RET G736A, 3.21 nM; at KIF5B–RET G810C, 36.1 nM. Also, the “kinases inhibited by >50%” value in data set [1] is listed as 39. Moreover, the Kp uu in the data set “in vivo” was 0.077.
